The results in this text go back to PubChem BioAssay (NCI).

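The compound was tested at five concentrations on cells cultured in 96-well plates, with a 48-hour exposure period. Here, GI50 denotes the concentration required for 50% inhibition of growth. At the TGI there is no net growth.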

Holding throughout (experiment): NCI tumour cell line growth inhibition, 48 h
Experiment [1] relates to CCRF-CEM leukemia.
Experiment [2] deals with HT29 colon.
For experiment [3], the system named is MOLT-4 leukemia.
The test system of experiment [4] is NCI-H460 lung.
Experiment [5] has as its system NCI-H522 lung.
The subject of experiment [6] is EKVX NSCLC.
The subject of experiment [7] is M14 melanoma.
In experiment [8] the test system is OVCAR-3 ovarian.

On to `COc1ccc2c(=O)cc(C(Cl)(Cl)Cl)oc2c1`, for which the GI50 is 0.309 µM in experiment [1]; 0.345 µM in experiment [2]; 0.302 µM in experiment [3]; 0.364 µM in experiment [4]; 0.228 µM in experiment [5]. The TGI amounted to 10.9 µM in experiment [2], 4.44 µM in experiment [3], 8.63 µM in experiment [4] and 0.683 µM in experiment [5].

In the case of `CCOC(=O)c1cc2c(cc1Cl)SC(N(c1ccc(OC)cc1)S(=O)(=O)c1ccc(Cl)cc1)=NS2(=O)=O`, the GI50 is 0.666 µM in experiment [1]; 41.7 µM in experiment [6]; 29.4 µM in experiment [2]; 38.7 µM in experiment [7]; 30.7 µM in experiment [3]; 37.3 µM in experiment [4]. Also, the GI50 in experiment [5] was 21 µM; in experiment [8], 22.1 µM. Besides, the TGI in experiment [1], in experiment [6], in experiment [2], in experiment [7], in experiment [3] and in experiment [4] was over 100 µM throughout. In addition, the TGI in experiment [5] came to 64.8 µM; in experiment [8], 54.4 µM.

Take `COc1cc(C(=O)N2CCN(c3ncnc4ccccc34)CC2)c(N)cc1OCc1ccccc1`: the GI50 is 23.8 µM in experiment [1]; 22.5 µM in experiment [6]; 12.7 µM in experiment [2]; 15.2 µM in experiment [7]; 8.55 µM in experiment [3]; 11.3 µM in experiment [4]. Moreover, the GI50 was 5.71 µM in experiment [5] and 11.8 µM in experiment [8]. In addition, the TGI in experiment [1] came to 58.1 µM; in experiment [6], 48.5 µM; in experiment [2], 27.4 µM; in experiment [7], 28.6 µM; in experiment [3] it was 40.4 µM; in experiment [4], 26.1 µM. Further, the TGI in experiment [5] worked out at 26.8 µM; in experiment [8], 25 µM.

Turning to `O=c1[nH]c(=S)[nH]c2c1CN(CCCN1CCOCC1)CN2`, the TGI in experiment [6] is over 100 µM; in experiment [2] it was over 100 µM; in experiment [7], 59.6 µM; in experiment [3], 83 µM; in experiment [4], 87.2 µM; in experiment [5], 52.3 µM. The same molecule yielded a TGI in experiment [8] of over 100 µM.

In the case of `COc1cc(N(C)C)c(OC)cc1/C=C\c1ccnc2ccccc12`, the TGI is 9.41 µM in experiment [1]; over 10 µM in experiment [6]; over 10 µM in experiment [2]; over 10 µM in experiment [7]; 8.06 µM in experiment [3]; over 10 µM in experiment [4]. For the same molecule, the TGI in experiment [5] and in experiment [8] was over 10 µM in each case.

`Oc1ccc(-c2nc3ccccc3s2)cc1CN(Cc1ccccn1)Cc1ccccn1`: the GI50 in experiment [1] is 1.09 µM; in experiment [6], 1.2 µM; in experiment [2] it was 6.74 µM; in experiment [7] it was 0.548 µM; in experiment [3], 1.42 µM; in experiment [4], 0.228 µM. Also, the GI50 in experiment [5] is 2.83 µM; in experiment [8], 2.73 µM. In addition, the TGI in experiment [1] is over 100 µM; in experiment [6] it was 14.9 µM; in experiment [2] it was 19.9 µM; in experiment [7], 4.6 µM; in experiment [3] it was 13.9 µM; in experiment [4], 10.5 µM. Besides, the TGI in experiment [5] amounted to 14.2 µM; in experiment [8], 18.1 µM.

Take `CC1CCCC(C(O)CC2CC(=O)NC(=O)C2)C1O` (configuration not stated): the TGI in experiment [1], in experiment [6], in experiment [2], in experiment [7], in experiment [3] and in experiment [4] was over 100 µM in each case. This molecule registered a TGI in experiment [8] of over 100 µM.

On to `NCCOCCOCCNc1nc(-c2ccccc2)nc(N2CCN(c3ccccn3)CC2)n1`, for which the GI50 is 14.3 µM in experiment [1]; 4.55 µM in experiment [2]; 2.16 µM in experiment [7]; 12.8 µM in experiment [3]; 16.5 µM in experiment [4]; 16.6 µM in experiment [8]. Further, the TGI was found to be 33.2 µM in experiment [1]; 17.6 µM in experiment [2]; 5.31 µM in experiment [7]; 29.4 µM in experiment [3]; 34.9 µM in experiment [4]; 30.4 µM in experiment [8].

Turning to `O=Nc1ccc(NO)c2ccccc12`, the GI50 is 8.04 µM in experiment [1]; 5.96 µM in experiment [2]; 16.5 µM in experiment [7]; 26.6 µM in experiment [3]; 21.7 µM in experiment [4]; 13.2 µM in experiment [5]. For the same molecule, in experiment [8], the GI50 is 2.37 µM. Also, the TGI in experiment [1] came to 58.9 µM; in experiment [2], 24.7 µM; in experiment [7], 31.3 µM; in experiment [3], 88.1 µM; in experiment [4], 51.3 µM; in experiment [5], 27 µM. Further, the TGI in experiment [8] was 12 µM.

Take `COc1cc(C2SCC(=O)N2c2ncc(C)s2)cc(OC)c1OC` (configuration not stated): the GI50 in experiment [6] is 43.9 µM; in experiment [2], 23.3 µM; in experiment [7], 21 µM; in experiment [3] it was 22.5 µM; in experiment [4], 25.7 µM; in experiment [5], over 50 µM. Further, in experiment [8], the GI50 is 14.3 µM. For the same molecule, the TGI in experiment [6], in experiment [2], in experiment [7], in experiment [3], in experiment [4] and in experiment [5] was over 50 µM in each case. In experiment [8], this molecule showed a TGI of 44.8 µM.

As to `CCN(CC)c1ccc(C(O)C2=CC(=O)c3ccccc3C2=O)cc1` (configuration not stated), the GI50 is 0.31 µM in experiment [1]; 4.01 µM in experiment [6]; 2.1 µM in experiment [7]; 0.44 µM in experiment [3]; 10.8 µM in experiment [4]; 1.79 µM in experiment [5]. Also, the GI50 in experiment [8] was 1.21 µM. Besides, the TGI in experiment [6] was 15.7 µM; in experiment [7] it was 4.57 µM; in experiment [3], over 100 µM; in experiment [4], over 32.4 µM; in experiment [5], 4.19 µM; in experiment [8] it was 2.75 µM.
